Measured values: US20070049564A1 (Wyeth, priority 2005, published 2007)
Converted amounts (≈) assume the structure as drawn. Where two headings read alike, the source gives them in different places.

How the values were obtained:
E. coli GC 2236 = assay: MIC, broth microdilution; conditions: Escherichia coli, GC2236, E. coli GC 2236
Method: (§1) Antimicrobial susceptibility testing. The in vitro activities of the antibiotics are determined by the broth microdilution method as recommended by the National Committee for Clinical Laboratory Standards (NCCLS) (1). Mueller-Hinton II broth (MHBII)(BBL Cockeysville, Md.) is the medium employed in the testing procedures. Microtiter plates containing serial dilutions of each antimicrobial agent are inoculated with each organism to yield the appropriate density (10^5 CFU/ml) in a 100 μl final volume. The plates are incubated for 18-22 hours at 35° C. in ambient air. […] Standard Pharmacological Test Procedures
(§2) Presented in Tables I-XIII are representative compounds of Formula I which were evaluated against a panel of 40 selected gram-positive and gram-negative bacteria strains by pre-incubation in water, mouse serum or human serum. Representative compounds were first incubated in mouse serum for an hour prior to the in vitro testing against a panel of selected gram-positive and gram-negative bacteria strains. All compounds were also pre-incubated in water for an hour prior to testing as control. Representative compounds of Formula I were incubated in human serum prior to MIC determination.

E. coli GC 2231 = assay: MIC, broth microdilution; conditions: Escherichia coli, GC2231, E. coli GC 2231
E. coli GC 2235 = assay: MIC, broth microdilution; conditions: Escherichia coli, GC2235, E. coli GC 2235
E. coli GC 2233 = assay: MIC, broth microdilution; conditions: Escherichia coli, GC2233, E. coli GC 2233
E. coli GC 2234 = assay: MIC, broth microdilution; conditions: Escherichia coli, GC2234, E. coli GC 2234
E. coli GC 2272 = assay: MIC, broth microdilution; conditions: Escherichia coli, GC2272, E. coli GC 2272
E. coli GC 4560 = assay: MIC, broth microdilution; conditions: Escherichia coli, GC4560, E. coli GC 4560
Method: Antimicrobial susceptibility testing. The in vitro activities of the antibiotics are determined by the broth microdilution method as recommended by the National Committee for Clinical Laboratory Standards (NCCLS) (1). Mueller-Hinton II broth (MHBII)(BBL Cockeysville, Md.) is the medium employed in the testing procedures. Microtiter plates containing serial dilutions of each antimicrobial agent are inoculated with each organism to yield the appropriate density (10^5 CFU/ml) in a 100 μl final volume. The plates are incubated for 18-22 hours at 35° C. in ambient air.
Representative compounds were first incubated in mouse serum for an hour prior to the in vitro testing against a panel of selected gram-positive and gram-negative bacteria strains. All compounds were also pre-incubated in water for an hour prior to testing as control. Representative compounds of Formula I were incubated in human serum prior to MIC determination.

E. coli GC 6465 = assay: MIC, broth microdilution; conditions: Escherichia coli, GC6465, E. coli GC 6465
E. coli GC 2203 = assay: MIC, broth microdilution; conditions: Escherichia coli, GC2203, E. coli GC 2203
S. typhimurium GC 2172 = assay: MIC, broth microdilution; conditions: Salmonella enterica, TYPHIMURIUM, S. typhimurium GC 2172
S. aureus GC 1131 = assay: MIC, broth microdilution; conditions: Staphylococcus aureus, GC1131, S. aureus GC 1131
S. aureus GC 6466 = assay: MIC, broth microdilution; conditions: Staphylococcus aureus, GC6466, S. aureus GC 6466
Method: as §1, §2

S. aureus GC 6467 = assay: MIC, broth microdilution; conditions: Staphylococcus aureus, GC6467, S. aureus GC 6467
S. aureus GC 1079 = assay: MIC, broth microdilution; conditions: Staphylococcus aureus, GC1079, S. aureus GC 1079
S. epidermidis GC 4935 = assay: MIC, broth microdilution; conditions: Staphylococcus epidermidis, GC4935, S. epidermidis GC 4935
E. faecalis GC 4555 = assay: MIC, broth microdilution; conditions: Enterococcus faecalis, GC4555, E. faecalis GC 4555
E. faecalis GC 2267 = assay: MIC, broth microdilution; conditions: Enterococcus faecalis, GC2267, E. faecalis GC 2267
E. faecium GC 4556 = assay: MIC, broth microdilution; conditions: Enterococcus faecium, GC4556, E. faecium GC 4556
S. pneumoniae* GC 4465 = assay: MIC, broth microdilution; conditions: Streptococcus pneumoniae, S. pneumoniae* GC 4465
Staph. = assay: Range of MIC for Staph. strains, including MRSA; conditions: Staphylococcus aureus, MRSA
[1] = read-out: Range of MIC, Staph (Mouse Serum)
[2] = read-out: Range of MIC, Staph (Water)
[3] = read-out: Range of MIC, Staph. (mouse serum)
[4] = read-out: Range of MIC, Staph. (water)

CCCN(CC(=O)Nc1cc(N(C)C)c2c(c1O)C(=O)C1=C(O)[C@]3(O)C(=O)C(C(N)=O)=C(O)[C@@H](N(C)C)[C@@H]3C[C@@H]1C2)C(=O)OCOC(=O)C(C)(C)C [Example 9, ({[(2-{[(5aR,6aS,7S,10aS)-9-(aminocarbonyl)-4,7-bis(dimethylamino)-1,8,10a,11-tetrahydroxy-10,12-dioxo-5,5a,6,6a,7,10,10a,12-octahydrotetracen-2-yl]amino}-2-oxoethyl)(propyl)amino]carbonyl}oxy)methyl pivalate]
MIC (E. coli GC 2236; Mouse Serum pre-incubation): 1 µg/mL (≈ 1.37 µM) | MIC (E. coli GC 2236; Water pre-incubation): 8 µg/mL (≈ 11 µM) | MIC (E. coli GC 2231; Mouse Serum pre-incubation): 2 µg/mL (≈ 2.74 µM) | MIC (E. coli GC 2231; Water pre-incubation): 64 µg/mL (≈ 87.7 µM) | MIC (E. coli GC 2235; Mouse Serum pre-incubation): 0.5 µg/mL (≈ 0.685 µM) | MIC (E. coli GC 2235; Water pre-incubation): 4 µg/mL (≈ 5.48 µM) | MIC (E. coli GC 2233; Mouse Serum pre-incubation): 0.5 µg/mL (≈ 0.685 µM) | MIC (E. coli GC 2233; Water pre-incubation): 4 µg/mL (≈ 5.48 µM) | MIC (E. coli GC 2234; Mouse Serum pre-incubation): 0.5 µg/mL (≈ 0.685 µM) | MIC (E. coli GC 2234; Water pre-incubation): 8 µg/mL (≈ 11 µM) | MIC (E. coli GC 2272; Mouse Serum pre-incubation): 0.5 µg/mL (≈ 0.685 µM) | MIC (E. coli GC 2272; Water pre-incubation): 8 µg/mL (≈ 11 µM) | MIC (E. coli GC 4560; Mouse Serum pre-incubation): 0.25 µg/mL (≈ 0.343 µM) | MIC (E. coli GC 4560; Water pre-incubation): 1 µg/mL (≈ 1.37 µM) | MIC (E. coli GC 6465; Mouse Serum pre-incubation): 4 µg/mL (≈ 5.48 µM) | MIC (E. coli GC 6465; Water pre-incubation): > 64 µg/mL | MIC (E. coli GC 2203; Mouse Serum pre-incubation): 0.5 µg/mL (≈ 0.685 µM) | MIC (E. coli GC 2203; Water pre-incubation): 4 µg/mL (≈ 5.48 µM) | MIC (S. typhimurium GC 2172; Mouse Serum pre-incubation): 8 µg/mL (≈ 11 µM) | MIC (S. typhimurium GC 2172; Water pre-incubation): > 64 µg/mL | MIC (S. aureus GC 1131; Mouse Serum pre-incubation): < 0.06 µg/mL | MIC (S. aureus GC 1131; Water pre-incubation): 0.25 µg/mL (≈ 0.343 µM) | MIC (S. aureus GC 6466; Mouse Serum pre-incubation): 0.12 µg/mL (≈ 0.164 µM) | MIC (S. aureus GC 6466; Water pre-incubation): 0.12 µg/mL (≈ 0.164 µM) | MIC (S. aureus GC 6467; Mouse Serum pre-incubation): 1 µg/mL (≈ 1.37 µM) | MIC (S. aureus GC 6467; Water pre-incubation): 2 µg/mL (≈ 2.74 µM) | MIC (S. aureus GC 1079; Mouse Serum pre-incubation): 2 µg/mL (≈ 2.74 µM) | MIC (S. aureus GC 1079; Water pre-incubation): 1 µg/mL (≈ 1.37 µM) | MIC (S. epidermidis GC 4935; Mouse Serum pre-incubation): 0.25 µg/mL (≈ 0.343 µM) | MIC (S. epidermidis GC 4935; Water pre-incubation): 1 µg/mL (≈ 1.37 µM) | MIC (E. faecalis GC 4555; Mouse Serum pre-incubation): 0.5 µg/mL (≈ 0.685 µM) | MIC (E. faecalis GC 4555; Water pre-incubation): 2 µg/mL (≈ 2.74 µM) | MIC (E. faecalis GC 2267; Mouse Serum pre-incubation): 1 µg/mL (≈ 1.37 µM) | MIC (E. faecalis GC 2267; Water pre-incubation): 2 µg/mL (≈ 2.74 µM) | MIC (E. faecium GC 4556; Mouse Serum pre-incubation): 0.25 µg/mL (≈ 0.343 µM) | MIC (E. faecium GC 4556; Water pre-incubation): 0.5 µg/mL (≈ 0.685 µM) | MIC (S. pneumoniae* GC 4465; Mouse Serum pre-incubation): < 0.06 µg/mL | MIC (S. pneumoniae* GC 4465; Water pre-incubation): < 0.06 µg/mL | MIC (Staph.; [1]): 0.06 to 2 µg/mL (≈ 0.0822 to 2.74 µM) | MIC (Staph.; [2]): 0.12 to 2 µg/mL (≈ 0.164 to 2.74 µM) | MIC (Staph.; [3]): 0.06 to 1 µg/mL (≈ 0.0822 to 1.37 µM) | MIC (Staph.; [4]): 0.12 to 2 µg/mL (≈ 0.164 to 2.74 µM)

CCCN(CC(=O)Nc1cc(N(C)C)c2c(c1O)C(=O)C1=C(O)[C@]3(O)C(=O)C(C(N)=O)=C(O)[C@@H](N(C)C)[C@@H]3C[C@@H]1C2)C(=O)OCOC(=O)C(C)C [Example 10, ({[(2-{[(5aR,6aS,7S,10aS)-9-(aminocarbonyl)-4,7-bis(dimethylamino)-1,8,10a,11-tetrahydroxy-10,12-dioxo-5,5a,6,6a,7,10,10a,12-octahydrotetracen-2-yl]amino}-2-oxoethyl)(propyl)amino]carbonyl}oxy)methyl 2-methylpropanoate]
MIC (E. coli GC 2236; Mouse Serum pre-incubation): 0.5 µg/mL (≈ 0.699 µM) | MIC (E. coli GC 2236; Water pre-incubation): 8 µg/mL (≈ 11.2 µM) | MIC (E. coli GC 2231; Mouse Serum pre-incubation): 2 µg/mL (≈ 2.79 µM) | MIC (E. coli GC 2231; Water pre-incubation): 32 µg/mL (≈ 44.7 µM) | MIC (E. coli GC 2235; Mouse Serum pre-incubation): 0.25 µg/mL (≈ 0.349 µM) | MIC (E. coli GC 2235; Water pre-incubation): 4 µg/mL (≈ 5.59 µM) | MIC (E. coli GC 2233; Mouse Serum pre-incubation): 0.5 µg/mL (≈ 0.699 µM) | MIC (E. coli GC 2233; Water pre-incubation): 8 µg/mL (≈ 11.2 µM) | MIC (E. coli GC 2234; Mouse Serum pre-incubation): 0.5 µg/mL (≈ 0.699 µM) | MIC (E. coli GC 2234; Water pre-incubation): 8 µg/mL (≈ 11.2 µM) | MIC (E. coli GC 2272; Mouse Serum pre-incubation): 0.5 µg/mL (≈ 0.699 µM) | MIC (E. coli GC 2272; Water pre-incubation): 8 µg/mL (≈ 11.2 µM) | MIC (E. coli GC 4560; Mouse Serum pre-incubation): 0.12 µg/mL (≈ 0.168 µM) | MIC (E. coli GC 4560; Water pre-incubation): 0.12 µg/mL (≈ 0.168 µM) | MIC (E. coli GC 6465; Mouse Serum pre-incubation): 8 µg/mL (≈ 11.2 µM) | MIC (E. coli GC 6465; Water pre-incubation): > 64 µg/mL | MIC (E. coli GC 2203; Mouse Serum pre-incubation): 0.5 µg/mL (≈ 0.699 µM) | MIC (E. coli GC 2203; Water pre-incubation): 8 µg/mL (≈ 11.2 µM) | MIC (S. typhimurium GC 2172; Mouse Serum pre-incubation): 4 µg/mL (≈ 5.59 µM) | MIC (S. typhimurium GC 2172; Water pre-incubation): > 64 µg/mL | MIC (S. aureus GC 1131; Mouse Serum pre-incubation): 0.12 µg/mL (≈ 0.168 µM) | MIC (S. aureus GC 1131; Water pre-incubation): 0.12 µg/mL (≈ 0.168 µM) | MIC (S. aureus GC 6466; Mouse Serum pre-incubation): 0.12 µg/mL (≈ 0.168 µM) | MIC (S. aureus GC 6466; Water pre-incubation): 0.12 µg/mL (≈ 0.168 µM) | MIC (S. aureus GC 6467; Mouse Serum pre-incubation): 2 µg/mL (≈ 2.79 µM) | MIC (S. aureus GC 6467; Water pre-incubation): 2 µg/mL (≈ 2.79 µM) | MIC (S. aureus GC 1079; Mouse Serum pre-incubation): 0.5 µg/mL (≈ 0.699 µM) | MIC (S. aureus GC 1079; Water pre-incubation): 1 µg/mL (≈ 1.4 µM) | MIC (S. epidermidis GC 4935; Mouse Serum pre-incubation): 0.5 µg/mL (≈ 0.699 µM) | MIC (S. epidermidis GC 4935; Water pre-incubation): 1 µg/mL (≈ 1.4 µM) | MIC (E. faecalis GC 4555; Mouse Serum pre-incubation): 0.5 µg/mL (≈ 0.699 µM) | MIC (E. faecalis GC 4555; Water pre-incubation): 1 µg/mL (≈ 1.4 µM) | MIC (E. faecalis GC 2267; Mouse Serum pre-incubation): 1 µg/mL (≈ 1.4 µM) | MIC (E. faecalis GC 2267; Water pre-incubation): 2 µg/mL (≈ 2.79 µM) | MIC (E. faecium GC 4556; Mouse Serum pre-incubation): 0.25 µg/mL (≈ 0.349 µM) | MIC (E. faecium GC 4556; Water pre-incubation): 0.5 µg/mL (≈ 0.699 µM) | MIC (S. pneumoniae* GC 4465; Mouse Serum pre-incubation): < 0.06 µg/mL | MIC (S. pneumoniae* GC 4465; Water pre-incubation): < 0.06 µg/mL | MIC (Staph.; [1]): 0.25 to 2 µg/mL (≈ 0.349 to 2.79 µM) | MIC (Staph.; [2]): 0.12 to 2 µg/mL (≈ 0.168 to 2.79 µM) | MIC (Staph.; [3]): 0.25 to 2 µg/mL (≈ 0.349 to 2.79 µM) | MIC (Staph.; [4]): 0.12 to 2 µg/mL (≈ 0.168 to 2.79 µM)
